Measured values as given in US6039950A, “Pharmaceutical grade saw palmetto” (priority 1997, dated 2000).
Read-outs that look alike come from different tables or passages of the source. One block for each compound: values may come before it.

Tests used:
Type 1 5α-reductase [1] = conditions: Table 2, cited from earlier work; for IC50: read-out: IC50 for DHT, Type 1 5α-reductase
5α-reductase type 2 = conditions: cited from earlier work
5α-reductase type 1 = conditions: Table 1; read-out: IC50 for DHT inhibition, epithelial cells (type 1); cited from earlier work
5-lipoxygenase = target: T1, 5-lipoxygenase (Rattus norvegicus, UniProt P12527); assay: biochemical; conditions: for 5-Lipo activity: screened at 3×10^-5 (30 μM)
T1 sequence (P12527 1-673): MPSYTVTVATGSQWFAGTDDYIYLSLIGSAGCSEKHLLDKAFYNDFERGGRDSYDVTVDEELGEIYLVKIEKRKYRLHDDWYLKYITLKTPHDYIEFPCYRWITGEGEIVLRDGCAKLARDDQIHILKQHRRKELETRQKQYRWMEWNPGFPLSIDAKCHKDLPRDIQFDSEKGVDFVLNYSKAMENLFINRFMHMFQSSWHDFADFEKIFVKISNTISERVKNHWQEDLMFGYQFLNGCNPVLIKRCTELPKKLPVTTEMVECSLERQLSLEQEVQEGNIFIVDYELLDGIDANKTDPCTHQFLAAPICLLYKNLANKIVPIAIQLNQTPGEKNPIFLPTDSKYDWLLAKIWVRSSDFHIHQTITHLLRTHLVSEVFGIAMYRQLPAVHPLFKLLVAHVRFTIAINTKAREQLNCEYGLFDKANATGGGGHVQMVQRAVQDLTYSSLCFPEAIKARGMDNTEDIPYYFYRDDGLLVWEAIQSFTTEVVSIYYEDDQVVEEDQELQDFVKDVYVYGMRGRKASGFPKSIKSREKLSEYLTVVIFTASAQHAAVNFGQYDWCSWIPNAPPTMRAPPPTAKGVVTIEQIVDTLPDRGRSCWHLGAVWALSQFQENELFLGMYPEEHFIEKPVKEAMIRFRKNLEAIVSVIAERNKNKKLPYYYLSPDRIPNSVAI
Method: The procedure was as follows. 5-lipoxygenase assays were run using a crude enzyme preparation from rat basophilic leukemia cells (RBL-1). Test compounds were pre-incubated with the enzyme for 5 minutes at room temperature and the reaction was initiated by addition of substrate (arachidonic acid). Following an 8 minute incubation at room temperature, the reaction was terminated by addition of citric acid, and levels of 5-HETE were determined by 5-HETE radioimmunoassay (RIA).
Compounds and fractions were screened at an initial concentration of 3×10^-5.

Cyclooxygenase-1 = target: T2, Cyclooxygenase-1 (Ovis aries, UniProt P05979); assay: biochemical; format: biochemical, ram; conditions: for Cox1 activity: screened at 3×10^-4 M
T2 construct: Cyclooxygenase-1 (from ram seminal vesicles); from tissue; host or cells: ram seminal vesicles; assay by Panlabs
T2 sequence (P05979 25-600): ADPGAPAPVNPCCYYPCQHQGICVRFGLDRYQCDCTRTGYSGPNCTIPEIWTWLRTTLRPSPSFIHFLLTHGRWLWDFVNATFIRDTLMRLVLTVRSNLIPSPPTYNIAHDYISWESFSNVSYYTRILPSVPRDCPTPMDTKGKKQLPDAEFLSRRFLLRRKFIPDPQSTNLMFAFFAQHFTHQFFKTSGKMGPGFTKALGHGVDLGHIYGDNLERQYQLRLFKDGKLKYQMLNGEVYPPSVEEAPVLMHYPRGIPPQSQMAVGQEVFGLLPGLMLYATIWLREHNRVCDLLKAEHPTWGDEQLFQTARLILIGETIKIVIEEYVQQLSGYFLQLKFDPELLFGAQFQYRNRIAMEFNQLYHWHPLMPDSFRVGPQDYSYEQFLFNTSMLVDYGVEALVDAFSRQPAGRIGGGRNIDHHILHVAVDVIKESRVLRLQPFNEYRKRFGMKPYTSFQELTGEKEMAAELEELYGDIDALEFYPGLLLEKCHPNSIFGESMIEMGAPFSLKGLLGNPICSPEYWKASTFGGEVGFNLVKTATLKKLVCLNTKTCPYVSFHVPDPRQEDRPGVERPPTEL
Method: The reaction was initiated by addition of arachidonic acid (100 mM) and terminated after 20 minutes incubation at 37° C. by addition of trichloroacetic acid (TCA).

5α-reductase [2] = conditions: cited from earlier work
Cyclooxygenase-2 = target: T3, Cyclooxygenase-2 (Ovis aries, UniProt P79208); assay: biochemical; format: biochemical, sheep
T3 construct: Cyclooxygenase-2 (from sheep placenta); from tissue; host or cells: sheep placenta; assay by Panlabs
Method: The reaction is initiated by addition of arachidonic acid (100 mM) and terminated after 20 minutes incubation at 37° C. by addition of TCA.

Type 1 5α-reductase [3] = conditions: cited from earlier work
5α-reductase [4] = conditions: in vivo; cited from earlier work
Type 2 5α-reductase = conditions: cited from earlier work
5α-reductase [5] = conditions: rat, in vivo; cited from earlier work
[6] = cited from earlier work; for time to degradation in oil preparations: exposed to light, "in as little as"
[7] = Table 1, read-out: IC50 for DHT inhibition, stroma (type 2)
[8] = fibroblasts, read-out: IC50, inhibition of DHT formation in fibroblasts
[9] = Table 8, read-out: 5 Lipoxygenase IC50 (Table 8)
[10] = Table 8, read-out: Cyclooxygenase-1 IC50 (Table 8)
[11] = Table 8, read-out: Cyclooxygenase-2 IC50 (Table 8)

T3 sequence (P79208 17-603): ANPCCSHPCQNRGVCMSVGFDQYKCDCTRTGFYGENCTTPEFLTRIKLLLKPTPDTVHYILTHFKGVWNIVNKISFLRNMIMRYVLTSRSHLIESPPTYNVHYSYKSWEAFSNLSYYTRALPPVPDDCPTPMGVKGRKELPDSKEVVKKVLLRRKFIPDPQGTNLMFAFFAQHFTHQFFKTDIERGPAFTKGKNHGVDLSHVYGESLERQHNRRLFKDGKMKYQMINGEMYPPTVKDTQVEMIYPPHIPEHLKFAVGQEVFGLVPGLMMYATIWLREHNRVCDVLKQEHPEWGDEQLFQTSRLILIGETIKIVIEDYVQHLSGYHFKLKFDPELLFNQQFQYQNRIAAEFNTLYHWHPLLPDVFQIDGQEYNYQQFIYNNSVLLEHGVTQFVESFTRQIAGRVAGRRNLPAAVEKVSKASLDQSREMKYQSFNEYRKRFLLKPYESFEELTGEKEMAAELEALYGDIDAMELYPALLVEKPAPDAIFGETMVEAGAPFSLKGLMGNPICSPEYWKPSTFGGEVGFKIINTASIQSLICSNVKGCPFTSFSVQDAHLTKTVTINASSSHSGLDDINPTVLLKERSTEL

Structure (SMILES): CCN(CC)C(=O)[C@H]1CC[C@H]2[C@@H]3CC[C@H]4N(C)C(=O)CC[C@]4(C)[C@H]3CC[C@]12C [4-MA]
Inhibition type (Type 1 5α-reductase [1]): Competitive | IC50 (Type 1 5α-reductase [1]): 10 nM | IC50 (5α-reductase type 2; [7]): 50 nM | IC50 (5α-reductase type 2; [8]): 50 nM | IC50 (5α-reductase type 1): 20 nM

IC50 (5-lipoxygenase; [9]): > 30000 nM | 5-Lipo activity (5-lipoxygenase): Negative | IC50 (Cyclooxygenase-1; [10]): > 300000 nM | Cox1 activity (Cyclooxygenase-1): Negative | Cox2 activity (Cyclooxygenase-2): Negative | IC50 (Cyclooxygenase-2; [11]): > 300000 nM
Structure (SMILES): CCCCCCCCCCCC(=O)OCC [Ethyl laurate]
5α-reductase inhibitory activity (5α-reductase [2]): markedly less effective

Structure (SMILES): CC(C)(C)NC(=O)[C@H]1CC[C@H]2[C@@H]3CC[C@H]4NC(=O)C=C[C@]4(C)[C@H]3CC[C@]12C [Finasteride]
type of inhibition (Type 1 5α-reductase [3]): competitive | IC50 (Type 1 5α-reductase [3]; read-out: inhibition, IC50): 400 nM | Ki (Type 1 5α-reductase [3]; read-out: inhibition, Ki): 108 nM | Inhibition type (Type 1 5α-reductase [1]): Competitive | IC50 (Type 1 5α-reductase [1]): 500 nM | decrease in serum DHT levels (5α-reductase [4]): decrease in serum DHT levels | type of inhibition (Type 2 5α-reductase): (non)competitive | IC50 (Type 2 5α-reductase; read-out: inhibition, IC50): 10.7 nM | Ki (Type 2 5α-reductase; read-out: inhibition, Ki): 7.3 nM | IC50 (5α-reductase type 2; [7]): 30 nM | IC50 (5α-reductase type 2; [8]): 30 nM | IC50 (5α-reductase type 1): 400 nM | inhibition of 5α-reductase in castrated rats (5α-reductase [5]): inhibits 5α-reductase

Structure (SMILES): CCCCCCCCCCCC(=O)O [Lauric Acid]
IC50 (5-lipoxygenase; [9]): > 30000 nM | 5-Lipo activity (5-lipoxygenase): Negative | IC50 (Cyclooxygenase-1; [10]): > 300000 nM | Cox1 activity (Cyclooxygenase-1): Negative | 5α-reductase inhibitory activity (5α-reductase [2]): particularly potent inhibitors | Cox2 activity (Cyclooxygenase-2): Negative | IC50 (Cyclooxygenase-2; [11]): > 300000 nM

Structure (SMILES): CCCCC/C=C\C/C=C\CCCCCCCC(=O)O [Linoleic Acid]
IC50 (5-lipoxygenase): > 30000 nM | 5-Lipo activity (5-lipoxygenase): Negative | IC50 (Cyclooxygenase-1): > 300000 nM | Cox1 activity (Cyclooxygenase-1): Negative | 5α-reductase inhibitory activity (5α-reductase [2]): particularly potent inhibitors | Cox2 activity (Cyclooxygenase-2): Negative | IC50 (Cyclooxygenase-2): > 300000 nM

Structure (SMILES): CC/C=C\C/C=C\C/C=C\CCCCCCCC(=O)O [Linolenic Acid]
IC50 (5-lipoxygenase): 12000 nM | 5α-reductase inhibitory activity (5α-reductase [2]): particularly potent inhibitors | Cox2 activity (Cyclooxygenase-2): Negative | IC50 (Cyclooxygenase-2; [11]): > 300000 nM

Structure (SMILES): CCC(C)C(=O)[C@]12C(=O)[C@](CC=C(C)C)(C[C@H](CC=C(C)C)[C@@]1(C)CCC=C(C)C)C(=O)C(CC=C(C)C)=C2O (stereo partly shown) [adhyperforin]
time to degradation in oil preparations [6]: 14 days

Structure (SMILES): CC(C)=CCCC1(C)C(CC=C(C)C)CC2(CC=C(C)C)C(=O)C(CC=C(C)C)=C(O)C1(C(=O)C(C)C)C2=O (stereo not shown) [hyperforin]
time to degradation in oil preparations [6]: 14 days

Structure (SMILES): Cc1cc(O)c2c(=O)c3c(O)cc(O)c4c5c(O)cc(O)c6c(=O)c7c(O)cc(C)c8c1c2c(c34)c(c78)c65 [hypericin]
hypericin content on storage ([6]; 60-140 °C, more than six weeks, powdered extract, tablet and juice): drop significantly
